Measurements: patent publication US20250179073A1, “TRICYCLIC HETEROCYCLE COMPOUNDS AS IAP ANTAGONISTS” (Ascentage Pharma (Suzhou) Co., Ltd., priority 2022, published 2025)

Assays:
[1] = tested on: MDA-MB-231 cells; assay: Cell proliferation assay (CellTiter-Glo), MDA-MB-231; format: cell-based; settings: Homo sapiens, MDA-MB-231, 72 h, 72 h treatment, Celltiter-Glo luminescence
Procedure, shortened: (§1)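 Compounds tested over ten concentrations ([…]) for 72 h on EVSA-T cells in MEM/10% FBS and MDA-MB-231 cells in RPMI-1640/10% FBS, seeded at 10000/well. Luminescent CellTiter-Glo readout; IC50 fitted after normalisation to controls.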

[2] = tested on: EVSA-T cells; assay: Cell proliferation assay (CellTiter-Glo), EVSA-T; format: cell-based; settings: Homo sapiens, EVSA-T, 72 h, 72 h treatment, Celltiter-Glo luminescence
Procedure, shortened: as §1

SMILES | IC50 [1] | IC50 [2]
Cc1nc2c(Cc3ccc(F)cc3)cc3c(n2c1C)C(C)(C)CN3C(=O)CN1C[C@@H](C)NC[C@@H]1CN1CCOC[C@H]1C [Compound 109, 1-(4-(4-fluorobenzyl)-1,2,8,8-tetramethyl-7,8-dihydro-6H-imidazo[1,2-a]pyrrolo[2,3-e]pyridin-6-yl)-2-((2R,5R)-5-methyl-2-(((R)-3-methylmorpholino)methyl)piperazin-1-yl)ethan-1-one] | 61 nM | 9 nM
C[C@@H]1CN(CC(=O)N2CC(C)(C)c3c2cc(Cc2ccc(F)cc2)c2nc(C(F)(F)F)cn32)[C@@H](CN2CCOC[C@H]2C)CN1 [Compound 116, 1-(4-(4-fluorobenzyl)-8,8-dimethyl-2-(trifluoromethyl)-7,8-dihydro-6H-imidazo[1,2-a]pyrrolo[2,3-e]pyridin-6-yl)-2-((2R,5R)-5-methyl-2-(((R)-3-methylmorpholino)methyl)piperazin-1-yl)ethan-1-one] | 93 nM | 19 nM
C[C@@H]1CN(CC(=O)N2CC(C)(C)c3c2cc(Cc2ccc(F)cc2)c2nc(N4C[C@@H](O)[C@@H](O)C4)nn32)[C@@H](CN2CCOC[C@H]2C)CN1 [Compound 229, 1-(2-((3R,4S)-3,4-dihydroxypyrrolidin-1-yl)-4-(4-fluorobenzyl)-8,8-dimethyl-7,8-dihydro-6H-pyrrolo[2,3-e][1,2,4]triazolo[1,5-a]pyridin-6-yl)-2-((2R,5R)-5-methyl-2-(((R)-3-methylmorpholino)methyl)piperazin-1-yl)ethan-1-one] | 76 nM | 7 nM
C[C@@H]1CN(CC(=O)N2CC(C)(C)c3c2cc(Cc2ccc(F)cc2)c2nn(C4CCOCC4)c(=O)n32)[C@@H](CN2CCOC[C@H]2C)CN1 [Compound 190, 4-(4-fluorobenzyl)-8,8-dimethyl-6-(2-((2R,5R)-5-methyl-2-(((R)-3-methylmorpholino)methyl)piperazin-1-yl)acetyl)-2-(tetrahydro-2H-pyran-4-yl)-2,6,7,8-tetrahydro-1H-pyrrolo[2,3-e][1,2,4]triazolo[4,3-a]pyridin-1-one] | 14 nM | 3 nM
C[C@@H]1CN(CC(=O)N2CC(C)(C)c3c2cc(Cc2ccc(F)cc2)c2nn([C@H]4CCOC4)c(=O)n32)[C@@H](CN2CCOC[C@H]2C)CN1 [Compound 218, 4-(4-fluorobenzyl)-8,8-dimethyl-6-(2-((2R,5R)-5-methyl-2-(((R)-3-methylmorpholino)methyl)piperazin-1-yl)acetyl)-2-((S)-tetrahydrofuran-3-yl)-2,6,7,8-tetrahydro-1H-pyrrolo[2,3-e][1,2,4]triazolo[4,3-a]pyridin-1-one] | 47 nM | 2 nM
C[C@@H]1CN(CC(=O)N2CC(C)(C)c3c2cc(Cc2ccc(F)cc2)c2nn(CC(C)(C)O)c(=O)n32)[C@@H](CN2CCOC[C@H]2C)CN1 [Compound 231, 4-(4-fluorobenzyl)-2-(2-hydroxy-2-methylpropyl)-8,8-dim ethyl-6-(2-((2R,5R)-5-methyl-2-(((R)-3-methylmorpholino)methyl)piperazin-1-yl)acetyl)-2,6,7,8-tetrahydro-1H-pyrrolo[2,3-e][1,2,4]triazolo[4,3-a]pyridin-1-one] | 28 nM | 4 nM
C[C@@H]1CN(CC(=O)N2CC(C)(C)c3c2cc(Cc2ccc(F)cc2)c2nn(CC4(O)CC4)c(=O)n32)[C@@H](CN2CCOC[C@H]2C)CN1 [Compound 240, 4-(4-fluorobenzyl)-2-((1-hydroxycyclopropyl)methyl)-8,8-dimethyl-6-(2-((2R,5R)-5-methyl-2-(((R)-3-methylmorpholino)methyl)piperazin-1-yl)acetyl)-2,6,7,8-tetrahydro-1H-pyrrolo[2,3-e][1,2,4]triazolo[4,3-a]pyridin-1-one] | 25 nM | 5.9 nM
C[C@@H]1CN(CC(=O)N2CC(C)(C)c3c2cc(Cc2ccc(F)cc2)c2nc(CO)cn32)[C@@H](CN2CCOC[C@H]2C)CN1 [Example 19, 1-(4-(4-fluorobenzyl)-2-(hydroxymethyl)-8,8-dimethyl-7,8-dihydro-6H-imidazo[1,2-a]pyrrolo[2,3-e]pyridin-6-yl)-2-((2R,5R)-5-methyl-2-(((R)-3-methylmorpholino)methyl)piperazin-1-yl)ethan-1-one] | 180 nM | 21 nM
C[C@@H]1CN(CC(=O)N2CC(C)(C)c3c2cc(Cc2ccc(F)cc2)c2ncc(C#N)n32)[C@@H](CN2CCOC[C@H]2C)CN1 [Compound 111, 4-(4-fluorobenzyl)-8,8-dimethyl-6-(2-((2R,5R)-5-methyl-2-(((R)-3-methylmorpholino)methyl)piperazin-1-yl)acetyl)-7,8-dihydro-6H-imidazo[1,2-a]pyrrolo[2,3-e]pyridine-1-carbonitrile] | 42 nM | 2 nM
C[C@@H]1CN(CC(=O)N2CC(C)(C)c3c2cc(Cc2ccc(F)cc2)c2nc(C4CCOCC4)nn32)[C@@H](CN2CCOC[C@H]2C)CN1 [Compound 140, 1-(4-(4-fluorobenzyl)-8,8-dimethyl-2-(tetrahydro-2H-pyran-4-yl)-7,8-dihydro-6H-pyrrolo[2,3-e][1,2,4]triazolo[1,5-a]pyridin-6-yl)-2-((2R,5R)-5-methyl-2-(((R)-3-methylmorpholino)methyl)piperazin-1-yl)ethan-1-one] | 45 nM | 3 nM
C[C@@H]1CN(CC(=O)N2CC(C)(C)c3c2cc(Cc2ccc(F)cc2)c2nn(CCN(C)C)c(=O)n32)[C@@H](CN2CCOC[C@H]2C)CN1 [Compound 243, 2-(2-(dimethylamino)ethyl)-4-(4-fluorobenzyl)-8,8-dimethyl-6-(2-((2R,5R)-5-methyl-2-(((R)-3-methylmorpholino)methyl)piperazin-1-yl)acetyl)-2,6,7,8-tetrahydro-1H-pyrrolo[2,3-e][1,2,4]triazolo[4,3-a]pyridin-1-one] | 95 nM | 14.5 nM
C[C@@H]1CN(CC(=O)N2CC(C)(C)c3c2cc(Cc2ccc(F)cc2)c2nc(N4CCS(=O)(=O)CC4)nn32)[C@@H](CN2CCOC[C@H]2C)CN1 [Compound 199, 1-(2-(1,1-dioxidothiomorpholino)-4-(4-fluorobenzyl)-8,8-dimethyl-7,8-dihydro-6H-pyrrolo[2,3-e][1,2,4]triazolo[1,5-a]pyridin-6-yl)-2-((2R,5R)-5-methyl-2-(((R)-3-methylmorpholino)methyl)piperazin-1-yl)ethan-1-one] | 20 nM | 6 nM
[2H]C([2H])([2H])n1nc2c(Cc3ccc(F)cc3)cc3c(n2c1=O)C(C)(C)CN3C(=O)CN1C[C@@H](C)NC[C@@H]1CN1CCOC[C@H]1C [Compound 252] | 32 nM | 5.3 nM

More lines, main results first:

IC50 [1] | SMILES | IC50 [2]
120 nM | C[C@@H]1CN(CC(=O)N2CC(C)(C)c3c2cc(Cc2ccc(F)cc2)c2nccn32)[C@@H](CN2CCOC[C@H]2C)CN1 [Example 17, 1-(4-(4-fluorobenzyl)-8,8-dimethyl-7,8-dihydro-6H-imidazo[1,2-a]pyrrolo[2,3-e]pyridin-6-yl)-2-((2R,5R)-5-methyl-2-(((R)-3-methylmorpholino)methyl)piperazin-1-yl)ethan-1-one] | 4 nM
170 nM | C[C@@H]1CN(CC(=O)N2CC(C)(C)c3c2cc(Cc2ccc(F)cc2)c2n[nH]c(=O)n32)[C@@H](CN2CCOC[C@H]2C)CN1 [Compound 152, 4-(4-fluorobenzyl)-8,8-dimethyl-6-(2-((2R,5R)-5-methyl-2-(((R)-3-methylmorpholino)methyl)piperazin-1-yl)acetyl)-2,6,7,8-tetrahydro-1H-pyrrolo[2,3-e][1,2,4]triazolo[4,3-a]pyridin-1-one] | 30 nM
68 nM | C[C@@H]1CN(CC(=O)N2CC(C)(C)c3c2cc(Cc2ccc(F)cc2)c2nn(Cc4ncccc4F)c(=O)n32)[C@@H](CN2CCOC[C@H]2C)CN1 [Compound 220, 4-(4-fluorobenzyl)-2-((3-fluoropyridin-2-yl)methyl)-8,8-di methyl-6-(2-((2R,5R)-5-methyl-2-(((R)-3-methylmorpholino)methyl)piperazin-1-yl)acetyl)-2,6,7,8-tetrahydro-1H-pyrrolo[2,3-e][1,2,4]triazolo[4,3-a]pyridin-1-one] | 2 nM
26 nM | C[C@@H]1CN(CC(=O)N2CC(C)(C)c3c2cc(Cc2ccc(F)cc2)c2ncnn32)[C@@H](CN2Cc3ccccc3C2=O)CN1 [Compound 94, 2-(((2R,5R)-1-(2-(4-(4-fluorobenzyl)-8,8-dimethyl-7,8-dihydro-6H-pyrrolo[2,3-e][1,2,4]triazolo[1,5-a]pyridin-6-yl)-2-oxoethyl)-5-methylpiperazin-2-yl)methyl)isoindolin-1-one] | 4 nM
120 nM | C[C@@H]1CN(CC(=O)N2CC(C)(C)c3c2cc(Cc2ccc(F)cc2Cl)c2ncnn32)[C@@H](CN2CCOC[C@H]2C)CN1 [Compound 123, 1-(4-(2-chloro-4-fluorobenzyl)-8,8-dimethyl-7,8-dihydro-6H-pyrrolo[2,3-e][1,2,4]triazolo[1,5-a]pyridin-6-yl)-2-((2R,5R)-5-methyl-2-(((R)-3-methylmorpholino)methyl)piperazin-1-yl)ethan-1-one] | 43 nM
60 nM | C[C@@H]1CN(CC(=O)N2CC(C)(C)c3c2cc(Cc2ccc(F)cc2)c2nc(C#N)nn32)[C@@H](CN2CCOC[C@H]2C)CN1 [Compound 32, 4-(4-fluorobenzyl)-8,8-dimethyl-6-(2-((2R,5R)-5-methyl-2-(((R)-3-methylmorpholino)methyl)piperazin-1-yl)acetyl)-7,8-dihydro-6H-pyrrolo[2,3-e][1,2,4]triazolo[1,5-a]pyridine-2-carbonitrile] | 20 nM
21 nM | C[C@@H]1CN(CC(=O)N2CC(C)(C)c3c2cc(Cc2ccc(F)cc2)c2ncnn32)[C@@H](CN2Cc3cc(F)ccc3C2=O)CN1 [Compound 100, 5-fluoro-2-(((2R,5R)-1-(2-(4-(4-fluorobenzyl)-8,8-dimethyl-7,8-dihydro-6H-pyrrolo[2,3-e][1,2,4]triazolo[1,5-a]pyridin-6-yl)-2-oxoethyl)-5-methylpiperazin-2-yl)methyl)isoindolin-1-one] | 4 nM
